# Measurements reported in ChEMBL document CHEMBL3244272, “Folate antagonists. 15. 2,3-Diamino-6-(2-naphthylsulfonyl)quinazoline and related 2,4-diamino-6-[(phenyl and naphthyl)sulfinyl and sulfonyl]quinazolines, a potent new class of antimetabolites with phenomenal antimalarial activity” (J Med Chem, 1979).
# Columns and labels:
# Type in all cases: functional
# [1] = test system: Plasmodium berghei; experiment: Antimalarial activity against trophozoite-induced Plasmodium berghei infected in sc dosed mouse assessed as minimum curative dose
# [2] = test system: Plasmodium berghei; experiment: Antimalarial activity against trophozoite-induced Plasmodium berghei infected in mouse assessed as change in mean survival time at 40 mg/kg, sc single dose after 72 hrs of infection; conditions: route subcutaneous
# [3] = test system: Pseudomonas aeruginosa; experiment: Antibacterial activity against Pseudomonas aeruginosa 28 assessed as growth inhibition
# [4] = test system: Staphylococcus aureus; experiment: Antibacterial activity against Staphylococcus aureus S18713 assessed as growth inhibition
# [5] = test system: Mycobacterium tuberculosis; experiment: Antibacterial activity against Mycobacterium tuberculosis H37Rv assessed as growth inhibition
# [6] = test system: Shigella sonnei; experiment: Antibacterial activity against Shigella sonnei C-10 assessed as growth inhibition
# [7] = test system: Plasmodium berghei; experiment: Antimalarial activity against trophozoite-induced Plasmodium berghei infected in mouse assessed as change in mean survival time at 20 mg/kg, sc single dose after 72 hrs of infection; conditions: route subcutaneous
# [8] = test system: Staphylococcus aureus; experiment: Antibacterial activity against Staphylococcus aureus UC-76 assessed as growth inhibition
# [9] = test system: Enterococcus faecalis; experiment: Antibacterial activity against Streptococcus faecalis MGH-2 assessed as growth inhibition
# [10] = test system: Escherichia coli; experiment: Antibacterial activity against Escherichia coli Vogel assessed as growth inhibition
# [11] = test system: Plasmodium gallinaceum; experiment: Antimalarial activity against cycloguanil-resistant Plasmodium gallinaceum infected in mouse assessed as dose required to suppress parasitemia by 90% compound treated through gavage for 3 days
# [12] = test system: Plasmodium gallinaceum; experiment: Antimalarial activity against cycloguanil-resistant Plasmodium gallinaceum infected in mouse assessed as dose required to suppress parasitemia by 90% compound treated through gavage for 3 days relative to parent strain
# [13] = test system: Plasmodium berghei; experiment: Antimalarial activity against trophozoite-induced Plasmodium berghei infected in mouse assessed as change in mean survival time at 2.5 mg/kg, sc single dose after 72 hrs of infection; conditions: route subcutaneous
# [14] = test system: Plasmodium berghei; experiment: Antimalarial activity against trophozoite-induced Plasmodium berghei infected in mouse assessed as change in mean survival time at 5 mg/kg, sc single dose after 72 hrs of infection; conditions: route subcutaneous
# [15] = test system: Plasmodium berghei; experiment: Antimalarial activity against trophozoite-induced Plasmodium berghei infected in mouse assessed as change in mean survival time at 1.25 mg/kg, sc single dose after 72 hrs of infection; conditions: route subcutaneous
# [16] = test system: Plasmodium berghei; experiment: Antimalarial activity against trophozoite-induced Plasmodium berghei infected in mouse assessed as change in mean survival time at 80 mg/kg, sc single dose after 72 hrs of infection; conditions: route subcutaneous
# [17] = test system: Plasmodium berghei; experiment: Antimalarial activity against trophozoite-induced Plasmodium berghei infected in mouse assessed as change in mean survival time at 10 mg/kg, sc single dose after 72 hrs of infection; conditions: route subcutaneous
# [18] = test system: Plasmodium falciparum; experiment: Antimalarial activity against chloroquine-sensitive, pyrimethamine-resistant Plasmodium falciparum Malayan Camp CH/Q infected in Aotus monkey assessed as dose required to >50% cures compound treated for 7 days
# [19] = test system: Plasmodium falciparum; experiment: Antimalarial activity against chloroquine-resistant, pyrimethamine-sensitive Plasmodium falciparum Vietnam Oak Knoll in Aotus monkey assessed as dose required to >50% cures compound treated for 7 days
# [20] = test system: Plasmodium berghei; experiment: Antimalarial activity against trophozoite-induced Plasmodium berghei infected in mouse assessed as change in mean survival time at 160 mg/kg, sc single dose after 72 hrs of infection; conditions: route subcutaneous
# [21] = test system: Plasmodium berghei; experiment: Antimalarial activity against trophozoite-induced Plasmodium berghei infected in mouse assessed as change in mean survival time at 320 mg/kg, sc single dose after 72 hrs of infection; conditions: route subcutaneous
SMILES,MCD [1] [mg/kg],MST [2] [days],MIC [3] [µg/mL],MIC [4] [µg/mL],MIC [5] [µg/mL],MIC [6] [µg/mL],MST [7] [days],MIC [8] [µg/mL],MIC [9] [µg/mL],MIC [10] [µg/mL],MST [13] [days],MST [14] [days],MST [16] [days],MST [17] [days],other results
Nc1nc(N)c2c(Cl)c([S+]([O-])c3ccc4ccccc4c3)ccc2n1 (stereo unspecified),5,23.9,> 25,> 25,> 25,> 25,9.3,> 25,< 0.25,> 25,,,,,
Nc1nc(N)c2cc(Sc3ccc(Br)cc3)ccc2n1,,,,,,,,,,,,,,,Activity [11]: <1.6 mg/kg; fold change (FC) [12]: <4
Nc1nc(N)c2cc([S+]([O-])c3cccc(-c4ccccc4)c3)ccc2n1 (stereo unspecified),40,18.9,> 25,< 0.25,,> 25,11.1,< 0.25,< 0.25,> 25,1.1,4.1,22.9,6.7,MST [15]: 0.5 days
Nc1nc(N)c2cc(S(=O)(=O)c3ccc(Br)cc3)ccc2n1,10,,> 25,< 0.25,,> 25,9.9,< 0.25,< 0.25,2.5,6.5,10.3,,13.1,Activity [11]: <1.6 mg/kg; fold change (FC) [12]: <3
CN(C)c1ccc(Sc2ccc3nc(N)nc(N)c3c2)cc1,,,,,,,,,,,,,,,Activity [18]: 2.5 mg/kg; Activity [11]: 0.9 mg/kg; Activity [19]: 1.25 mg/kg; fold change (FC) [12]: 0
Nc1nc(N)c2cc(Sc3ccc4ccccc4c3)ccc2n1,,,,,,,,,,,,,,,Activity [18]: 3.125 mg/kg; Activity [11]: <1.6 mg/kg; Activity [19]: 1.56 mg/kg; fold change (FC) [12]: 0
Nc1nc(N)c2cc(Sc3ccc(Cl)c(Cl)c3)ccc2n1,,,,,,,,,,,,,,,Activity [11]: <0.4 mg/kg; fold change (FC) [12]: 0
Nc1nc(N)c2cc(S(=O)(=O)c3cccc4ccccc34)ccc2n1,80,3.5,> 25,> 25,> 25,> 25,2.9,> 25,> 25,> 25,,,5.5,0.7,MST [20]: 14.3 days; MST [21]: 14.4 days
Nc1nc(N)c2c(Cl)c([S+]([O-])c3cccc(C(F)(F)F)c3)ccc2n1 (stereo unspecified),40,,,,,,0.5,,,,,,1.1,,MST [21]: 1.5 days
Nc1nc(N)c2c(Cl)c(S(=O)(=O)c3ccc4ccccc4c3)ccc2n1,5,4.7,> 25,> 25,> 25,> 25,0.7,> 25,< 0.25,> 25,,,7.1,,MST [20]: 11.5 days; MST [21]: 13.3 days
Nc1nc(N)c2cc(Sc3cccc(C(F)(F)F)c3)ccc2n1 [WR-159412],,,,,,,,,,,,,,,Activity [18]: 0.39 mg/kg; Activity [19]: 0.098 mg/kg
Nc1nc(N)c2c(Cl)c([S+]([O-])c3ccccc3)ccc2n1 (stereo unspecified),640,12.9,,,,,8.5,,,,,,17.9,,
Nc1nc(N)c2c(Cl)c([S+]([O-])c3ccccc3Cl)ccc2n1 (stereo unspecified),40,,> 25,> 25,> 25,> 25,8.6,2,< 0.25,> 25,,,,,
Cc1cc(S(=O)(=O)c2ccc3nc(N)nc(N)c3c2)ccc1Br,80,5.9,,,,,1.5,,,,,,10.5,0.5,MST [20]: 17.4 days; MST [21]: 18.9 days
Nc1nc(N)c2cc([S+]([O-])c3cccc4ccccc34)ccc2n1 (stereo unspecified),80,7.9,> 25,> 25,,> 25,1.9,> 25,> 25,> 25,,,13.7,1.1,MST [20]: 15.2 days; MST [21]: 16.4 days
Nc1nc(N)c2cc([S+]([O-])c3ccc4ccccc4c3)ccc2n1 (stereo unspecified),20,,> 25,< 0.25,,2.5,,< 0.25,< 0.25,< 0.25,10.9,14.2,,31.9,Activity [18]: 0.78 mg/kg; Activity [11]: 0.1 mg/kg; MST [15]: 6.7 days; Activity [19]: 0.39 mg/kg; fold change (FC) [12]: 0
Nc1nc(N)c2c(Cl)c([S+]([O-])c3ccc(F)cc3)ccc2n1 (stereo unspecified),40,20.9,> 25,1,2.5,< 0.25,4.1,< 0.25,< 0.25,< 0.25,,,27.9,,
Nc1nc(N)c2c(Cl)c(S(=O)(=O)c3cccc(C(F)(F)F)c3)ccc2n1,40,0.7,> 25,> 25,> 25,> 25,0.7,> 25,< 0.25,> 25,,,1.1,0.5,MST [20]: 3.7 days; MST [21]: 4.7 days
Nc1nc(N)c2cc(S(=O)(=O)c3ccccc3)ccc2n1,160,12.1,,,,,7.7,,,,0.3,0.3,12.6,5.1,
Nc1nc(N)c2cc(S(=O)(=O)c3ccc(F)cc3)ccc2n1,20,,,,,,,,,,6.9,13.6,,12.9,Activity [11]: 0.6 mg/kg; MST [15]: 4.1 days; fold change (FC) [12]: 3
Nc1nc(N)c2c(Cl)c(S(=O)(=O)c3ccccc3)ccc2n1,640,22.4,> 25,2,> 25,2,11.9,2,< 0.25,2,,,,,
Nc1nc(N)c2cc([S+]([O-])c3ccc(Br)cc3)ccc2n1 (stereo unspecified),10,20.9,> 25,< 0.25,,> 25,13.6,< 0.25,< 0.25,2.5,3.3,6.7,,10.1,
Nc1nc(N)c2cc(S(=O)(=O)c3cccc(C(F)(F)F)c3)ccc2n1,40,,> 25,2,25,> 25,13.9,1.5,0.25,> 25,1.5,7.7,,11.6,Activity [18]: 1.56 mg/kg; MST [15]: 0.5 days; Activity [19]: 0.39 mg/kg
Nc1nc(N)c2cc([S+]([O-])c3ccc(Cl)c(Cl)c3)ccc2n1 (stereo unspecified),10,21.9,> 25,> 25,,> 25,15.9,> 25,< 0.25,> 25,4.1,7.9,,8.7,MST [15]: 1.1 days
COc1cc(Cc2cnc(N)nc2N)cc(OC)c1OC [TRIMETHOPRIM],,,> 25,< 0.25,> 25,< 0.25,,< 0.25,< 0.25,< 0.25,,,,,
Nc1nc(N)c2c(Cl)c(S(=O)(=O)c3ccc(F)cc3)ccc2n1,40,13.4,> 25,> 25,> 25,> 25,9.7,2,< 0.25,10,0.5,4.1,26.9,9.3,MST [15]: 0.5 days
